Molecular target: T1, human M4 muscarinic acetylcholine receptor (Homo sapiens, UniProt P08173)
T1 construct: expressed in transfected cells; host or cells: CHO-K1
T1 sequence (P08173 1-479): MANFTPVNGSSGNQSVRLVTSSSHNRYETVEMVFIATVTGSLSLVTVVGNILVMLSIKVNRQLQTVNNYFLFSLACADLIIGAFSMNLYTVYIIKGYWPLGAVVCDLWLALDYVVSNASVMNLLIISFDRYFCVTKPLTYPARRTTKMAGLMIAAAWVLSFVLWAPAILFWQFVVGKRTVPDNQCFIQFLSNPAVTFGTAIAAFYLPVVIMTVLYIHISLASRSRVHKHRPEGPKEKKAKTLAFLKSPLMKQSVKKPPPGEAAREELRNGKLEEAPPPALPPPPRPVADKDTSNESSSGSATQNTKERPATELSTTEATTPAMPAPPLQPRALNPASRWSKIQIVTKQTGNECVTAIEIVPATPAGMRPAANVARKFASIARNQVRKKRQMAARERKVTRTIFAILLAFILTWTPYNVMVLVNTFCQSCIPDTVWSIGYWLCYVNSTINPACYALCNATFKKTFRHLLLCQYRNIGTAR
Assay: human FLIPR-based M4 PAM assay (CHO-K1 cells, human M4 receptor and Gαqi5, calcium dye fluorescence, acetylcholine at 20% of maximum)
Type: cell-based
Details: inflection point (IP) of 4 parameter logistic dose response curve; CHO-K1 cells with human M4 receptor and Gαqi5; FLIPR Tetra
Experimental: In a typical experiment the M4 muscarinic acetylcholine receptor modulating activity of the compounds of the present invention was determined in accordance with the following experimental method. […] On the day of assay, growth medium is removed, the cells are washed 2 times with wash buffer, and cells are incubated in dye loading buffer at 37° C., 5% CO2 for ˜1 hour. […] Next, 10 uL of acetylcholine is added (final concentration calculated so as to achieve 20% of the maximum acetycholine response), and the fluorescence reading is continued for 3.5 min. In some cases, a third addition of acetylcholine (final concentration calculated to achieve 70% of the maximal acetylcholine response) is performed. The resulting dose response curves are fit to a 4 parameter logistic equation and the final result is determined as the inflection point (IP) of the curve
CHO-K1 cells stably transfected with human M4 receptor and chimeric G-protein Gαqi5 are thawed from liquid N2 storage, resuspended in growth medium, plated in black, clear bottom 384 well plates, and incubated 16-20 hours at 37° C., 5% CO2.
On the day of assay, growth medium is removed, the cells are washed 2 times with wash buffer, and cells are incubated in dye loading buffer at 37° C., 5% CO2 for ˜1 h. […] Next, 10 uL of acetylcholine is added (final concentration calculated so as to achieve 20% of the maximum acetycholine response), and the fluorescence reading is continued for 3.5 min. In some cases, a third addition of acetylcholine (final concentration calculated to achieve 70% of the maximal acetylcholine response) is performed.

| EC50 | Compound |
| --- | --- |
| 0.393 µM | COc1ccc(OC2CCN(c3nc4c(cc3C)C(=O)NCC4)CC2)cn1 [Example 1, 2-(4-((6-Methoxypyridin-3-yl)oxy)piperidin-1-yl)-3-methyl-7,8-dihydro-1,6-naphthyridin-5(6H)-one] |
| 0.988 µM | COc1ccc(CN2CCc3nc(N4CCC(Oc5ccc(OC)nc5)CC4)c(C)cc3C2=O)cc1 [Example 2, 6-(4-methoxybenzyl)-2-(4-((6-methoxypyridin-3-yl)oxy)piperidin-1-yl)-3-methyl-7,8-dihydro-1,6-naphthyridin-5(6H)-one] |
| 0.453 µM | COc1ccc(OC2CCN(c3nc4c(cc3C)C(=O)N(Cc3ccncc3)CC4)CC2)cn1 [Example 3, 2-(4-((6-methoxypyridin-3-yl)oxy)piperidin-1-yl)-3-methyl-6-(pyridin-4-ylmethyl)-7,8-dihydro-1,6-naphthyridin-5(6H)-one] |
| 0.431 µM | COc1ccc(OC2CCN(c3nc4c(cc3C)C(=O)N(C)CC4)CC2)cn1 [Example 4, 2-(4-((6-methoxypyridin-3-yl)oxy)piperidin-1-yl)-3,6-dimethyl-7,8-dihydro-1,6-naphthyridin-5(6H)-one] |
| 0.366 µM | COc1ccc(OC2CCN(c3nc4c(cc3C)c(=O)[nH]c(=O)n4C)CC2)cn1 [Example 5, 7-(4-((6-Methoxypyridin-3-yl)oxy)piperidin-1-yl)-1,6-dimethylpyrido[2,3-d]pyrimidine-2,4(1H,3H)-dione] |
| 0.059 µM | COc1ccc(OC2CCN(c3nc4[nH]c(=O)n(C)c(=O)c4cc3C)CC2)cn1 [Example 6, 7-(4-((6-Methoxypyridin-3-yl)oxy)piperidin-1-yl)-3,6-dimethylpyrido[2,3-d]pyrimidine-2,4(1H,3H)-dione] |
| 0.041 µM | Cc1cc2c(=O)[nH]c(=O)[nH]c2nc1N1CCC(Oc2cccc(C#N)c2)CC1 [Example 7, 3-((1-(6-methyl-2,4-dioxo-1,2,3,4-tetrahydro-pyrido[2,3-d]pyrimidin-7-yl)piperidin-4-yl)oxy)benzonitrile] |
| 0.018 µM | COc1ccc(OC2CCN(c3nc4[nH]c(=O)[nH]c(=O)c4cc3C)CC2)cn1 [Example 8, 7-(4-((6-Methoxypyridin-3-yl)oxy)piperidin-1-yl)-6-methylpyrido[2,3-d]pyrimidine-2,4(1H,3H)-dione] |
| 0.14 µM | COc1ccc(OC2CCN(c3nc4nc(CO)[nH]c(=O)c4cc3C)CC2)cn1 [Example 9, 2-(Hydroxymethyl)-7-(4-((6-methoxypyridin-3-yl)oxy)piperidin-1-yl)-6-methylpyrido[2,3-d]pyrimidin-4(3H)-one] |
| 0.034 µM | COc1ccc(OC2CCN(c3nc4nc[nH]c(=O)c4cc3C)CC2)cn1 [Example 10, 7-(4-((6-methoxypyridin-3-yl)oxy)piperidin-1-yl)-6-methylpyrido[2,3-d]pyrimidin-4(3H)-one] |
| 0.022 µM | COc1ccc(OC2CCN(c3nc4cn[nH]c(=O)c4cc3C)CC2)cn1 [Example 11, 2-(4-((6-methoxypyridin-3-yl)oxy)piperidin-1-yl)-3-methylpyrido[2,3-d]pyridazin-5(6H)-one] |
| 0.114 µM | COc1ccc(OC2CCN(c3nc4cc[nH]c(=O)c4cc3C)CC2)cn1 [Example 12, 2-(4-((6-methoxypyridin-3-yl)oxy)piperidin-1-yl)-3-methyl-1,6-naphthyridin-5(6H)-one] |
| 0.061 µM | COc1ccc(OC2CCN(c3nc4cnn(C)c(=O)c4cc3C)CC2)cn1 [Example 13, 2-(4-((6-methoxypyridin-3-yl)oxy)piperidin-1-yl)-3,6-dimethylpyrido[2,3-d]pyridazin-5(6H)-one] |
| 0.08 µM | Cc1cc2c(=O)[nH]cnc2nc1N1CCC(Oc2ccccc2)CC1 [Example 14, 6-methyl-7-(4-phenoxypiperidin-1-yl)pyrido[2,3-d]pyrimidin-4(3H)-one] |
| 0.023 µM | Cc1cc2c(=O)[nH]cnc2nc1N1CCC(Oc2cccc(C#N)c2)CC1 [Example 15, 3-((1-(6-methyl-4-oxo-3,4-dihydropyrido[2,3-d]pyrimidin-7-yl)piperidin-4-yl)oxy)benzonitrile] |
| 0.213 µM | Cc1cc2c(=O)[nH]cnc2nc1N1CCC(Oc2cccnc2)CC1 [Example 16, 6-methyl-7-(4-(pyridin-3-yloxy)piperidin-1-yl)pyrido[2,3-d]pyrimidin-4(3H)-one] |

| EC50 | Compound |
| --- | --- |
| 0.121 µM | Cc1cc2c(=O)[nH]cnc2nc1N1CCC(OCC2CC2)CC1 [Example 17, 7-(4-(cyclopropyl-methoxy)piperidin-1-yl)-6-methylpyrido[2,3-d]pyrimidin-4(3H)-one] |
| 0.254 µM | Cc1cc2c(=O)[nH]ncc2nc1N1CCC(OCC2CCCC2)CC1 [Example 18, 2-(4-(cyclopentyl-methoxy)piperidin-1-yl)-3-methylpyrido[2,3-d]pyridazin-5(6H)-one] |
| 0.074 µM | COc1ccc(OC2CCN(c3nc4nc(C)[nH]c(=O)c4cc3C)CC2)cn1 [Example 19, 7-(4-((6-methoxypyridin-3-yl)oxy)piperidin-1-yl)-2,6-dimethylpyrido[2,3-d]pyrimidin-4(3H)-one] |
| 0.05 µM | Cc1nc2nc(N3CCC(OCC4(C)CC4)CC3)c(C)cc2c(=O)[nH]1 [Example 20, 2,6-dimethyl-7-(4-((1-methylcyclopropyl)methoxy)piperidin-1-yl)pyrido[2,3-d]pyrimidin-4(3H)-one] |
| 0.026 µM | Cc1cc2c(=O)[nH]ncc2nc1N1CCC(Oc2cccc(C#N)c2)CC1 [Example 21, 3-((1-(3-methyl-5-oxo-5,6-dihydropyrido[2,3-d]pyridazin-2-yl)piperidin-4-yl)oxy)benzonitrile] |
| 0.158 µM | Cc1nc2nc(N3CCC(Oc4cnc5c(c4)COC5)CC3)c(C)cc2c(=O)[nH]1 [Example 22, 7-(4-((5,7-dihydrofuro[3,4-b]pyridin-3-yl)oxy)piperidin-1-yl)-2,6-dimethylpyrido[2,3-d]pyrimidin-4(3H)-one] |
| 0.158 µM | Cc1cc2c(=O)[nH]ncc2nc1N1CCC(Oc2cnn(C)c2)CC1 [Example 23, 3-methyl-2-(4-((1-methyl-1H-pyrazol-4-yl)oxy)piperidin-1-yl)pyrido[2,3-d]pyridazin-5(6H)-one] |
| 0.018 µM | Cc1cc2c(=O)[nH]ncc2nc1N1CCC(OCC2(C)CC2)CC1 [Example 24, 3-methyl-2-(4-((1-methylcyclopropyl)methoxy)piperidin-1-yl)pyrido[2,3-d]pyridazin-5(6H)-one] |
| 0.019 µM | Cc1cc2c(=O)[nH]c(=O)[nH]c2nc1N1CCC(OCC2(C)CC2)CC1 [Example 25, 6-methyl-7-(4-((1-methylcyclopropyl)methoxy)piperidin-1-yl)pyrido[2,3-d]pyrimidine-2,4(1H,3H)-dione] |
| 0.09 µM | Cc1cc2c(=O)[nH]c(=O)[nH]c2nc1N1CCC(Oc2cnn(C)c2)CC1 [Example 26, 6-methyl-7-(4-((1-methyl-1H-pyrazol-4-yl)oxy)piperidin-1-yl)pyrido[2,3-d]pyrimidine-2,4(1H,3H)-dione] |
| 0.494 µM | Cc1nc2nc(N3CCC(Oc4cnn(C)c4)CC3)c(C)cc2c(=O)[nH]1 [Example 27, 2,6-dimethyl-7-(4-((1-methyl-1H-pyrazol-4-yl)oxy)piperidin-1-yl)pyrido[2,3-d]pyrimidin-4(3H)-one] |
| 0.095 µM | COCc1nc2nc(N3CCC(Oc4ccc(OC)nc4)CC3)c(C)cc2c(=O)[nH]1 [Example 28, 2-(methoxymethyl)-7-(4-((6-methoxypyridin-3-yl)oxy)piperidin-1-yl)-6-methylpyrido[2,3-d]pyrimidin-4(3H)-one] |
| 0.053 µM | Cc1cc2c(=O)[nH]ncc2nc1N1CCC(Oc2cnc3c(c2)COC3)CC1 [Example 29, 2-(4-((5,7-dihydrofuro[3,4-b]pyridin-3-yl)oxy)piperidin-1-yl)-3-methylpyrido[2,3-d]pyridazin-5(6H)-one] |
| 0.546 µM | COCCc1nc2nc(N3CCC(Oc4ccc(OC)nc4)CC3)c(C)cc2c(=O)[nH]1 [Example 30, 2-(2-methoxyethyl)-7-(4-((6-methoxypyridin-3-yl)oxy)piperidin-1-yl)-6-methylpyrido[2,3-d]pyrimidin-4(3H)-one] |
| 0.042 µM | CCc1cc2c(=O)[nH]c(=O)[nH]c2nc1N1CCC(OCC2(C)CC2)CC1 [Example 31, 6-ethyl-7-(4-((1-methylcyclopropyl)methoxy)piperidin-1-yl)pyrido[2,3-d]pyrimidine-2,4(1H,3H)-dione] |
| 0.236 µM | Cc1cc2c(=O)[nH]c(=O)[nH]c2nc1N1CCC(OCC2CCC2)CC1 [Example 32, 7-(4-(cyclobutyl-methoxy)piperidin-1-yl)-6-methylpyrido[2,3-d]pyrimidine-2,4(1H,3H)-dione] |

From patent US10836775B2, “6,6-fused heteroaryl piperidine ether allosteric modulators of the M4 muscarinic acetylcholine receptor” (Merck Sharp & Dohme Corp., priority 2016, dated 2020)
